The source of these data is patent publication US5760241A, “Thiol derivatives with metallopeptidase inhibitory activity” (priority 1996, dated 1998).

SMILES strings stand for the structures.

In test [1] the target is T1, NEP (membranes from rat kidney cortex) (Rattus norvegicus, UniProt P07861).
T1 construct: from tissue; host or cells: kidney cortex membranes of male Sprague-Dawley rats
T1 sequence (P07861 1-750): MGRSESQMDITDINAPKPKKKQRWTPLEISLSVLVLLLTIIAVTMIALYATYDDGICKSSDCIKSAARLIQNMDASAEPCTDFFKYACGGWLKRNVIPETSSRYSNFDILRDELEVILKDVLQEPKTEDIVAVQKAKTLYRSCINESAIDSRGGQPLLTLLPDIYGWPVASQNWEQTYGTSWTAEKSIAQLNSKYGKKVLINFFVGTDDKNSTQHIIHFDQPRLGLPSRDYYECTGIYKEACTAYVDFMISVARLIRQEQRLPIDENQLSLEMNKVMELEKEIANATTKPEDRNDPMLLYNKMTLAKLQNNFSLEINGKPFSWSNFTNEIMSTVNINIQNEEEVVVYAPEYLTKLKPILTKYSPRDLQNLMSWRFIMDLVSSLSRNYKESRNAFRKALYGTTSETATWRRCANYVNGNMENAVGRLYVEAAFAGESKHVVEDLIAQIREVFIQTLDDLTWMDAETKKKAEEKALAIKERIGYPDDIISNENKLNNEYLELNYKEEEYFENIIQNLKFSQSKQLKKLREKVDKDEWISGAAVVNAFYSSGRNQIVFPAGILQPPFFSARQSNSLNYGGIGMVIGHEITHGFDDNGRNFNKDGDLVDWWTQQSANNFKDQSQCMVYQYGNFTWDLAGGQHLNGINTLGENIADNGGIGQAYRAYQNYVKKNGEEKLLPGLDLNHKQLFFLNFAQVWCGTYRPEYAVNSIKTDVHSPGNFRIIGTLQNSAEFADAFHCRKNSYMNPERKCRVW
Nature of the test: In vitro NEP-inhibitory activity in rat kidney cortex membranes ([3H][Leu5]-enkephaline substrate). The test is classed as biochemical, male Sprague-Dawley rats. As to conditions: 20 minutes at 30° C.; [3H][Leu5]-enkephaline 15 nM. As for the experimental part:
(§1) a) NEP-inhibitory activity
The NEP-inhibitory activity was evaluated in membranes from rat kidney cortex prepared according to the procedure described by T. Maeda et al. in Biochim. Biophys. Acta 1983, 731(1), 115-120.
By working at 0°-4° C., kidneys were removed from male Sprague-Dawley rats weighing approximately 300 g.
Cortex was carefully dissected, finely minced and suspended in a homogenization buffer (10 mM sodium phosphate pH 7.4 containing 1 mM MgCl2, 30 mM NaCl, 0.02% NaN3) 1:15 weight/volume.
The tissue was then homogenized for 30 seconds using an Ultra-Turrax homogenizer.
Approximately 10 ml of homogenate were layered over 10 ml of sucrose (41% weight/volume) and centrifuged at 31200 rpm for 30 minutes at 4° C. in a fixed angle rotor. The membranes were collected from the buffer/sucrose interface, washed twice with 50 mM TRIS/HCl buffer (pH 7.4) and resuspended into the same buffer for storage.
The membranes were stored in small aliquots at -80° C. until use.
The NEP-inhibitory activity was evaluated according to the method described by C. Llorens et al., in Eur. J. Pharmacol., 69, (1981), 113-116, as reported hereinafter.
Aliquots of the membrane suspension prepared as above described (concentration 5 μg/ml of proteins) were preincubated in the presence of an aminopeptidase inhibitory (Bestatin--1 mM) for 10 minutes at 30° C.
[^3 H][Leu^5 ]-enkephaline (15 nM) and buffer TRIS/HCl pH 7.4 (50 mM) were added in order to obtain a final volume of 100 μl.
Incubation (20 minutes at 30° C.) was stopped by adding HCl 0.1M (100 μl).
The formation of the metabolite [^3 H]Tyr-Gly-Gly was quantified by chromatography on polystyrene columns (Porapak Q).

Another test concerns NEP (SHR kidneys). Nature of the test: Ex vivo NEP-inhibitory activity in kidneys of treated SHR. Set-up: species or system spontaneously hypertensive rats (SHR). As to conditions: i.v. 0.64 μmoles/kg, 5 minutes. On the procedure: The ex vivo ACE/NEP-inhibitory activity of the compounds of formula I, in particular, was evaluated by considering the enzymatic activity in tissue homogenates (lung and kidney for the ACE- and NEP-inhibitory activity, respectively) from spontaneously hypertensive rats (SHR), treated with the tested compounds by intravenous or oral route.
as §1
The ex vivo NEP-inhibitory activity was evaluated according to the procedure reported in the literature by M. Orlowsky et al., in Biochemistry 1981, 20, 4942-4950.
The inhibitory activity of the compounds of formula I was evaluated in kidneys of spontaneously hypertensive rats (SHR), 5 minutes after i.v. injection (0.6, 0.64 and 21 μmoles/kg) and 30 minutes, 60 minutes and 4 hours after oral administration (30 μmoles/kg) of the tested compounds.
After the removal of the kidneys from SHR, the renal tissue was homogenized and incubated for 15 minutes at 37° C. in the presence of Glutaryl-Ala-Ala-Phe-2-naphthylamide (GAAP), as a substrate, and aminopeptidase M at pH 7.6.
The reaction was stopped by adding an aqueous solution at 10% of trichloroacetic acid.
The released 2-naphthylamine was determined by adding fast garnet dye (2 ml).
Enzyme reaction rates were determined by measuring the increase in the optical density at 524 nm (OD524) with respect to a standard obtained with 2-naphthylamine complexed with fast garnet.
The NEP-inhibitory activity of the tested compounds was expressed as percentage of NEP-inhibition in SHR kidneys.
As an example, the percentages of basal enzymatic activity obtained in the ex vivo tests after the administration of compounds 29 and 41, as representative compounds of formula I, and of the comparison compounds R-1, R-2, R-3 and R-4 are reported in the following table 2.

By IC50 is commonly meant the concentration at which inhibition is half-maximal. The low end stands for higher potency, the high end for lower potency. The molecule `O=C(N[C@@H](Cc1ccc(-c2ccccc2)cc1)C(=O)O)C(CS)Cc1ccccc1` (some centres unmarked) [compound 41] displayed an IC50 in test [1] of 5 nM. In addition, the “NEP-inhibition (kidneys), 5 minutes” value in the test with NEP (SHR kidneys) is 20%.
